“Also recorded” adds a separate entry of the source. Like-named read-outs stand apart in the source and are kept apart here.
Experiments:
[1] = system: WT mice; format: in vivo, C57BL/6J; conditions: 10 μL intraplantar, left hind paw, 30 min recording, n = 10; for pain behavior (duration of paw licking/biting): 500 µM, vs saline; for pain behavior (paw licking), dose-response: different doses
Procedure: (§1) Mice, C57BL/6J, were used as wild type (WT) in these experiments. TRPV1-KO mice were purchased from Model Animal Research Center of Nanjing University, China. All the experiments using animals were carried out in accordance with recommendations in the Guide for the Care and Use of Laboratory Animals of Kunming Institute of Zoology, Chinese Academy of Sciences. Experimental protocols using animals in this work were approved by the Institutional Animal Care and Use Committees at Kunming Institute of Zoology, Chinese Academy of Sciences (2014-204). All efforts were made to reduce the number of animals used and to minimize the suffering of animals.
(§2) Control mice were injected with the same volume of saline. Immediately after injection, the time of paw licking was recorded by digital video camera for 30 min.
(§3) Experimental data of electrophysiological recordings were acquired and analyzed by using the Pulse program and Igor Pro. The data obtained in experiments involving animals were analyzed by GraphPad Prism 5 (GraphPad Software, Inc., San Diego, CA, USA). All of the data points are shown as the means ± S.E. n is presented as the number of experiments. Statistical analysis was carried out by Student’s t test, and * indicated a significant difference (p < 0.01).

[2] = system: TRPV1; conditions: cited from earlier work
[3] = system: native HEK293T cells; format: cell-based; conditions: negative for TRPV1, 20 °C, endogenous ASICs
Procedure: (§4) Thus, electrophysiological tests on transient transfected TRPV1 were performed. […] To our knowledge, HEK293T cells have been reported to endogenously express acid-sensing ion channels (ASICs).
(§5) All patch clamp recordings were carried out at temperature 20 °C using an EPC-10 amplifier (HEKA Electronik, Lambrecht, Germany) according to the previous report. Recording pipettes were made from borosilicate glass capillary tubing, and their resistances were 3–5 MΩ when filled with internal solution. For mKv1.1 and mKv1.3 current recordings, the cells were held at −80 mV for 5 min after the whole-cell construction was established. All of the potassium current traces were elicited by a 300-ms depolarizing potential of 0 mV from a holding potential of −80 mV. The standard pipette solution contained (in mM): 140 KF, 4 MgCl2, 5 ATP-Na, 1 EGTA, and 10 HEPES, pH 7.3. The standard bath solution contained (in mM): 137 NaCl, 5.9 KCl, 2.2 CaCl2, 1.2 MgCl2, 14 glucose, and 10 HEPES, pH 7.3. For mice TRPV1 channel recordings, the pipette and bathing solution contained (in mM): 130 NaCl, 0.2 EDTA, and 3 HEPES, pH 7.2.
as §3

[4] = target: T1, mTRPV1 (Mus musculus, UniProt Q704Y3); format: cell-based
T1 construct: expressed in transfected cells; host or cells: HEK293T
T1 sequence (Q704Y3 whole entry): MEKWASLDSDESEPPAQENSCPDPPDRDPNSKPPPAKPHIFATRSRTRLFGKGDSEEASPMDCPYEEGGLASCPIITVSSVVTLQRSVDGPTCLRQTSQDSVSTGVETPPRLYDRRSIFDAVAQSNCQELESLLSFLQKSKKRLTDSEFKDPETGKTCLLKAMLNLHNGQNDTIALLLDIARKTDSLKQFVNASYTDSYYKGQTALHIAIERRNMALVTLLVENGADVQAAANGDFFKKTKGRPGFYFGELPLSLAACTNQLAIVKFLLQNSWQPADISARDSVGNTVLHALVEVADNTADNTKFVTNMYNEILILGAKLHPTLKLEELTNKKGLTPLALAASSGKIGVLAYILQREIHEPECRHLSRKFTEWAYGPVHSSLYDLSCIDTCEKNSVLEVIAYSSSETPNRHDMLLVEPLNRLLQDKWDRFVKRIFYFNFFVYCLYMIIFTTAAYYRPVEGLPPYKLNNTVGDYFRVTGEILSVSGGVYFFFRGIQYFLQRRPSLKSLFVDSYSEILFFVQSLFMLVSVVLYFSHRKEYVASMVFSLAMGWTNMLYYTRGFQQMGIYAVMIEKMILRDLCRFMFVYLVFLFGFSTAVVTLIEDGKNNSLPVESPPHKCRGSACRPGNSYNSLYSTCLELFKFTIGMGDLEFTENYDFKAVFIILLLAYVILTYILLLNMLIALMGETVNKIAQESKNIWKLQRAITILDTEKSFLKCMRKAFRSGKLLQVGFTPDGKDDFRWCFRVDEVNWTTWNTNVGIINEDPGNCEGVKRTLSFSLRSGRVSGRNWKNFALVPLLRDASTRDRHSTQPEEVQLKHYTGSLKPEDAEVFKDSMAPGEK
Procedure: as §4, §5, §3

[5] = system: DRG neurons of TRPV1 KO mice; format: cell-based, mouse
Procedure: (§6) DRG neurons from WT or TRPV1 KO mice were acutely dissociated and maintained in short-term primary culture as previously described. DRGs were incubated in 5% CO2/95% air at 37 °C for 1–4 h prior to patch-clamp experiments. HEK293T cells were used for mKv1.1 or mKv1.3 expression. Cells were grown under standard tissue culture conditions (5% CO2, 37 °C) in DMEM supplemented with 10% fetal bovine serum. Cells were transfected with DNA mixture (channel constructs and a green fluorescent protein (GFP) reporter plasmid) using lipofectamine 2000 transfection reagent (Invitrogen, Carlsbad, CA, USA) following the manufacturer’s instructions and used for electrophysiology 24–48 h after transfection. Cells with GFP fluorescence were selected for patch-clamp recordings […] after transfection.
as §5
as §3, with “Statistical analysis was carried out by Student’s t test, and * indicated a significant difference (p < 0.01).” left out

[6] = system: DRG neurons of WT mice; format: cell-based, mouse; conditions: 10 µM; DRG neurons 20 µm ≤ cell ≤ 35 µm; 20 °C
Procedure: as §6, §5
as §3, with “Statistical analysis was carried out by Student’s t test, and * indicated a significant difference (p < 0.01).” left out

[7] = system: TRPV1 KO mice; format: in vivo; conditions: 500 µM, 10 μL intraplantar, left hind paw; 30 min recording; n = 10; vs saline
Procedure: as §1, §2, §3

[8] = system: Kv1.3; design: method as in PMID 11173083, PMID 10565809; conditions: ref [37],[38]; cited from earlier work
[9] = system: Kv1.1; design: method as in PMID 11173083, PMID 10565809; conditions: ref [37],[38]; cited from earlier work

Molecule	pain behavior (duration of paw licking/biting) [1]	pain behavior (paw licking), dose-response [1]	agonism on TRPV1 [2]	evoked currents in native HEK293T cells, ramp method [3]	activation of TRPV1 (comparator agonists) [4]	evoked currents in TRPV1-expressed HEK293T cells, ramp method [4]	normalized evoked currents, TRPV1 KO compared with WT DRG neurons [5]	evoked currents on DRG neurons (TRPV1 KO) ([5]; 10 µM, DRG neurons 20 µm ≤ cell ≤ 35 µm, 20 °C)	evoked currents on DRG neurons (WT) [6]	activation of TRPV1 (comparator agonists) ([4]; HEK293T expressing mTRPV1, concentration not given, 20 °C)	pain behavior (paw licking), dose-response ([1]; listed as Kaliotoxin)	pain behavior (duration of paw licking/biting) [7]	inhibition of Kv1.3 [8]	inhibition of Kv1.1 [9]
COc1cc(CNC(=O)CCCC/C=C/C(C)C)ccc1O [capsaicin]	induced pain in WT mice	induced acute pain in a dose dependent manner	well-known agonist of TRPV1	did not evoke the currents	potently activated TRPV1	evoked the currents in HEK293T cells with over-expressed TRPV1 channels	significantly higher in WT than TRPV1 KO mice; also recorded: significantly lower in TRPV1 KO mice than in WT mice	not TRPV1 KO mice; also recorded: did not evoke currents	effectively evoked the currents in DRG neurons of WT; also recorded: evoked the currents on DRG sensory neurons of WT mice	–	–	–	–	–
NCCOB(c1ccccc1)c1ccccc1 [2APB]	–	–	–	–	–	–	–	–	–	potently activated TRPV1	–	–	–	–
kaliotoxin	unable to induce pain	did not induce pain	–	–	–	–	–	–	–	–	showed no significant pain behavior	only crude venom induced pain	potent inhibitor of Kv1.1 and Kv1.3	potent inhibitor of Kv1.1 and Kv1.3
